Measured values as given in the supplement of paper PMC10307832.

How the values were obtained:
Test in all cases: relative viability (nuclei count vs DMSO), 5 days (fraction); higher = more cells survive
Omipalisib + Palbociclib = compound: COc1ncc(-c2ccc3nccc(-c4ccnnc4)c3c2)cc1NS(=O)(=O)c1ccc(F)cc1F [Omipalisib] + CC(=O)c1c(C)c2cnc(Nc3ccc(N4CCNCC4)cn3)nc2n(C2CCCC2)c1=O [Palbociclib] (partner 0.5 µM)
In short: (§1)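 Lung cancer cell lines in 1536-well plates were dosed by pin tool the day after seeding, either with one drug alone or with a fixed anchor-drug dose plus five library-drug doses (not always all listed) in √10 steps. After 5 days, cells were fixed and their nuclei stained in one step (final 0.05% Triton X-100, 1% formaldehyde, 1 ug/ml Hoechst), then counted on 4× images. Relative viability is the nuclei count in treated wells divided by that in vehicle wells. Values are medians of duplicate plates.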

Omipalisib + Luminespib = compound: COc1ncc(-c2ccc3nccc(-c4ccnnc4)c3c2)cc1NS(=O)(=O)c1ccc(F)cc1F [Omipalisib] + CCNC(=O)c1noc(-c2cc(C(C)C)c(O)cc2O)c1-c1ccc(CN2CCOCC2)cc1 [Luminespib] (partner 0.01 µM)
In short: as §1

Omipalisib + Pictilisib = compound: COc1ncc(-c2ccc3nccc(-c4ccnnc4)c3c2)cc1NS(=O)(=O)c1ccc(F)cc1F [Omipalisib] + CS(=O)(=O)N1CCN(Cc2cc3nc(-c4cccc5[nH]ncc45)nc(N4CCOCC4)c3s2)CC1 [Pictilisib] (partner 1 µM)
In short: as §1

Omipalisib + Dasatinib = compound: COc1ncc(-c2ccc3nccc(-c4ccnnc4)c3c2)cc1NS(=O)(=O)c1ccc(F)cc1F [Omipalisib] + Cc1nc(Nc2ncc(C(=O)Nc3c(C)cccc3Cl)s2)cc(N2CCN(CCO)CC2)n1 [Dasatinib] (partner 0.075 µM)
In short: as §1

Omipalisib + Phenformin = compound: COc1ncc(-c2ccc3nccc(-c4ccnnc4)c3c2)cc1NS(=O)(=O)c1ccc(F)cc1F [Omipalisib] + N=C(N)NC(=N)NCCc1ccccc1 [Phenformin] (partner 250 µM)
In short: as §1

Omipalisib + Vorinostat = compound: COc1ncc(-c2ccc3nccc(-c4ccnnc4)c3c2)cc1NS(=O)(=O)c1ccc(F)cc1F [Omipalisib] + O=C(CCCCCCC(=O)Nc1ccccc1)NO [Vorinostat] (partner 1 µM)
In short: as §1

Cell Line	relative viability (Omipalisib + Palbociclib; first compound 0.0003 µM)	relative viability (Omipalisib + Palbociclib; first compound 0.003 µM)	relative viability (Omipalisib + Palbociclib; first compound 0.03 µM)	relative viability (Omipalisib + Luminespib; first compound 0.0003 µM)	relative viability (Omipalisib + Luminespib; first compound 0.003 µM)	relative viability (Omipalisib + Luminespib; first compound 0.03 µM)	relative viability (Omipalisib + Pictilisib; first compound 0.0003 µM)	relative viability (Omipalisib + Pictilisib; first compound 0.003 µM)	relative viability (Omipalisib + Pictilisib; first compound 0.03 µM)	relative viability (Omipalisib + Dasatinib; first compound 0.0003 µM)	relative viability (Omipalisib + Dasatinib; first compound 0.003 µM)	relative viability (Omipalisib + Dasatinib; first compound 0.03 µM)	relative viability (Omipalisib + Phenformin; first compound 0.0003 µM)	relative viability (Omipalisib + Phenformin; first compound 0.003 µM)	relative viability (Omipalisib + Phenformin; first compound 0.03 µM)	relative viability (Omipalisib + Vorinostat; first compound 0.0003 µM)	relative viability (Omipalisib + Vorinostat; first compound 0.003 µM)	relative viability (Omipalisib + Vorinostat; first compound 0.03 µM)
SW 1573	0.335	0.325	0.191	0.208	0.198	0.157	0.495	0.388	0.341	0.165	0.331	0.101	0.238	0.227	0.169	0.236	0.456	0.315
NCI-H596	–	–	–	0.98	0.657	0.285	0.43	0.386	0.412	0.618	0.44	0.295	0.692	0.445	0.387	0.581	0.364	0.447
NCI-H2342	0.459	0.442	0.406	0.622	0.45	0.446	–	–	–	0.298	0.294	0.243	0.56	0.482	0.424	0.678	0.536	0.499
NCI-H358	0.148	0.139	0.131	0.325	0.221	0.0986	0.285	0.272	0.278	0.127	0.11	0.131	0.259	0.211	0.145	0.573	0.546	0.272
ABC-1	0.603	0.482	0.364	0.688	0.362	0.484	0.72	0.628	0.533	0.424	0.499	0.35	0.221	0.234	0.224	1.04	0.76	0.692
EMC-BAC-2	0.441	0.38	0.311	1.07	0.711	0.58	0.514	0.465	0.432	0.261	0.231	0.21	0.476	0.368	0.334	0.382	0.317	0.298
NCI-H1666	0.641	0.632	0.658	0.983	0.955	0.729	0.406	0.335	0.186	0.787	0.673	0.539	0.547	0.559	0.487	1.02	0.881	0.815
NCI-H661	0.403	0.363	0.313	0.938	1.01	0.833	0.567	0.37	0.365	0.822	0.573	0.312	0.264	0.264	0.224	0.78	0.782	0.785
NCI-H2126	0.344	0.344	0.317	0.825	0.567	0.338	0.518	0.463	0.435	0.545	0.366	0.301	0.489	0.425	0.292	0.718	0.442	0.348
NCI-H1651	0.464	0.401	0.294	0.64	0.648	0.565	0.545	0.512	0.458	0.342	0.297	0.272	0.274	0.307	0.214	0.517	0.457	0.437
H3255	0.365	0.313	0.285	0.942	0.786	0.613	0.432	0.439	0.293	0.336	0.325	0.257	0.365	0.39	0.269	0.811	0.623	0.269
HOP-62	0.468	0.426	0.292	0.961	1.05	0.883	0.745	0.538	0.595	0.629	0.458	0.27	0.659	0.718	0.639	0.563	0.511	0.323
NCI-H441	0.213	0.19	0.139	0.207	0.28	0.234	0.428	0.354	0.351	0.494	0.37	0.339	0.703	0.659	0.318	0.783	0.526	0.399
SK-MES-1	0.273	0.271	0.261	0.635	0.421	0.269	0.423	0.318	0.347	0.316	0.174	0.136	0.66	0.618	0.428	1.02	0.739	0.526
EPLC-272H	0.311	0.306	0.225	0.191	0.176	0.156	0.403	0.377	0.298	0.387	0.239	0.113	0.294	0.253	0.193	0.586	0.295	0.129
NCI-H1915	0.509	0.483	0.446	0.677	0.766	0.579	1.03	0.866	0.862	0.278	0.257	0.275	0.368	0.389	0.366	0.528	0.483	0.432
NCI-H520	0.203	0.152	0.145	0.208	0.232	0.212	0.243	0.212	0.251	0.159	0.162	0.131	0.405	0.209	0.2	0.623	0.458	0.214
